{"source": "patent US20100105746A1", "about": "“METHOD FOR TREATING METABOLIC DISEASES” (priority 2008, published 2010)", "key": {"[1]": {"experiment": "Diabetic-prone (db/db) mouse model with high-fat diet (Example 7)", "type": "in vivo", "conditions": "db/db mice, high-fat diet, 15, 50 and 100 mg/kg once daily", "method": "The fibrate PPARα agonist fenofibrate (50 mg/kg) and the PPARγ agonist rosiglitazone (10 mg/kg) were used as reference controls for the study."}, "[2]": {"experiment": "Plasma lipids, lipoproteins and liver weight in normal rats versus fibrates (Example 8)", "type": "in vivo, rat", "conditions": "once daily p.o. 7 days", "description": "The study design was based on the protocols used in Examples 1-3. Male Sprague-Dawley rats were provided normal chow ad libitum, both before and during the study period. […] Six rats were assigned to each treatment group (8 to the vehicle control). The study terminated on the day following administration of the seventh dose (day 8), with terminal blood collected for plasma lipid and lipoprotein analyses including LC-MS-based determination of lipid profiles, total and free cholesterol analyses, and lipoprotein cholesterol determinations (VLDL, LDL and HDL).\nIn order to elucidate the impact of romazarit on plasma lipoproteins, an ultraviolet (UV) size exclusion chromatography (SEC) system was used to separate plasma into broad lipoprotein-containing fractions that were based on relative retention times of human VLDL (very low density lipoprotein), LDL (low density lipoprotein), and HDL (high density lipoprotein) standards. These fractions were collected for cholesterol assays and the UV chromatograms were integrated to provide relative quantitation of the three lipoprotein types. It is important to note that since the UV absorbance measurement is not specific for lipoproteins and may also derive from other plasma constituents that co-elute with a particular lipoprotein, the relative quantitation data reported here is an approximation. The HDL fraction in particular may have included such co-eluting species, as evidenced by the relatively high integrated area values for this fraction."}, "human PPARα": {"target": "T1, human PPARα (Homo sapiens, UniProt Q07869)", "T1 construct": "expressed in transfected cells; host or cells: HepG2", "T1 sequence (Q07869 1-468)": "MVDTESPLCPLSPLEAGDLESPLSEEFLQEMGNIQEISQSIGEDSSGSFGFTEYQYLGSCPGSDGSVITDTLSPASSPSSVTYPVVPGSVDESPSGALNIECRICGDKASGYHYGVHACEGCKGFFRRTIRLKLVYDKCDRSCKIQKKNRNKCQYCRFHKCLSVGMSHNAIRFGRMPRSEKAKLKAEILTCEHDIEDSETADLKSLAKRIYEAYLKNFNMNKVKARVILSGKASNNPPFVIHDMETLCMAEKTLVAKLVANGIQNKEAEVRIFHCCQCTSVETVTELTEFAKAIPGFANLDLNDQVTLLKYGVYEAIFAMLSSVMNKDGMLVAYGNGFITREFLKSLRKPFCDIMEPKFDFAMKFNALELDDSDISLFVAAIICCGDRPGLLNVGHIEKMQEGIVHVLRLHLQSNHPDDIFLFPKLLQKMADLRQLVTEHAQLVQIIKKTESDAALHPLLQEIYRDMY", "experiment": "PPARRE-luciferase reporter in HepG2 cells transfected with human PPARα", "type": "cell-based", "conditions": "retinoic acid 200 nM, read-out: EC50 activation of human PPARα (hPPARα)", "method": "(§1) For this study, a luciferase reporter plasmid containing 5 copies of a defined genetic regulatory PPARα response element (PPARRE) was utilized to detect romazarit-induced PPARRE activation in presence of a co-activator, retinoic acid. Specifically, HepG2 cells were transfected with expression vectors for either human or rat PPARα and the PPARRE-luciferase reporter plasmid. After 24 hours, the cells were trypsanized and subsequently seeded in 96-well clear-bottom plates at a density of 1.0×10^5 cells/ml."}, "rat PPARα": {"target": "T2, rat PPARα (Rattus norvegicus, UniProt P37230)", "T2 construct": "expressed in transfected cells; host or cells: HepG2", "T2 sequence (P37230 1-468)": "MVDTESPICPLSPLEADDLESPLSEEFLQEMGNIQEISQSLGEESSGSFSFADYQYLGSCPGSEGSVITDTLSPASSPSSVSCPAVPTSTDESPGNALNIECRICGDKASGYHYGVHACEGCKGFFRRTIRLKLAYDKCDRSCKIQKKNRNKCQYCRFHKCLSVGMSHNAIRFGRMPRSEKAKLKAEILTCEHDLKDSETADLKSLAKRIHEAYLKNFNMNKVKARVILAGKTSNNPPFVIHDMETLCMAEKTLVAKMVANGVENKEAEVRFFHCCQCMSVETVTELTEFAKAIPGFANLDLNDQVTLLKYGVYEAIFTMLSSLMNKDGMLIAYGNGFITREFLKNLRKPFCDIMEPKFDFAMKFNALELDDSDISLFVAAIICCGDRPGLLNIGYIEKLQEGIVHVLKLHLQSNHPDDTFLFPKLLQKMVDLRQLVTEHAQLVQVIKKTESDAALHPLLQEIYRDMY", "experiment": "PPARRE-luciferase reporter in HepG2 cells transfected with rat PPARα", "type": "cell-based", "conditions": "retinoic acid 200 nM, read-out: EC50 activation of rat PPARα (rPPARα)", "method": "as §1"}}}
{"smiles": "Cc1nc(-c2ccc(Cl)cc2)oc1COC(C)(C)C(=O)O", "note": "[romazarit, 2-[[2-(4-chlorophenyl)-4-methyl-5-oxazolyl]methoxy]-2-methylpropanoic acid]", "values": [{"measurement": "HDL", "setting": "[1]", "value": "did not significantly affect"}, {"measurement": "total cholesterol", "setting": "[1]", "value": "did not significantly affect"}, {"measurement": "total plasma triglycerides", "setting": "[1]", "value": "tendency likewise to reduce total plasma triglycerides at higher doses"}, {"measurement": "weight gain", "setting": "[1]", "value": "None of the romazarit or fenofibrate treatments reduced weight gain"}, {"measurement": "whole blood glucose levels", "setting": "[1]", "value": "no such effect was seen"}, {"measurement": "potency in lowering plasma free fatty acids compared to the other compounds tested", "setting": "[2]; 50 and 100 mg/kg", "value": "superior potency"}, {"measurement": "plasma cholesterol esters", "setting": "[2]; 50 and 100 mg/kg (romazarit also 10 mg/kg)", "value": "increased at least some fractions of plasma cholesterol esters"}, {"measurement": "plasma free fatty acids", "setting": "[2]; romazarit 10, 50 and 100 mg/kg", "value": "lowered plasma free fatty acids in a dose-dependent manner"}, {"measurement": "plasma triglycerides", "setting": "[2]; romazarit 10, 50 and 100 mg/kg", "value": "significantly lowered"}, {"measurement": "EC50", "setting": "human PPARα", "value": "~200", "unit": "µM"}, {"measurement": "EC50", "setting": "rat PPARα", "value": "~200", "unit": "µM"}]}
